Measurements published in paper PMC10544810 (Food & Function, 2023).

Assays:
[1] = cited from earlier work
LC-MS [2] = type: in vivo, human; conditions: for plasma concentration (mean ± SD): fasted baseline plasma, 90 volunteers; for concentrations detected in plasma: individual volunteers, ESI Fig. S4
LC-MS [3] = type: in vivo, human; conditions: given as x : 1; plasma versus CSF concentrations

Compound | plasma concentration (mean ± SD) (LC-MS [2]) [µM] | plasma : CSF ratio (LC-MS [3]) | further results
O=C(O)c1cccc(O)c1 [3-Hydroxybenzoic acid] | – | – | CSF concentration reported by a previous study [1]: 58.5 nM
CCOC(=O)c1cc(O)c(O)c(O)c1 [3,4,5-trihydroxybenzene ethyl ester] | 0.0053 ± 0.0041 | – | –
Cn1c(=O)c2[nH]cnc2n(C)c1=O [1,3-Dimethylxanthine, reference compound] | – | 620 | –
O=c1ccc2ccc(O)c(O)c2o1 [7,8-Dihydroxycoumarin] | – | 5 | concentrations detected in plasma (LC-MS [2]): below 1 μM
Cn1c(=O)[nH]c(=O)c2[nH]cnc21 [3-Methylxanthine] | 5.3 ± 3.8 | – | –
Cn1c(=O)c2c(ncn2C)n(C)c1=O [1,3,7-Trimethylxanthine, reference compound] | 179 ± 118 | – | –
O=C(O)CNC(=O)c1ccccc1 [hippuric acid] | 387 ± 243 | – | –
Oc1cc(O)c2c(c1)O[C@H](c1ccc(O)c(O)c1)[C@H](O)C2 [(−)-Epicatechin] | – | 24 | concentrations detected in plasma (LC-MS [2]): below 1 μM
